Assays:
Assay in all cases: relative viability (nuclei count vs DMSO), 5 days (fraction); higher = more cells survive
Alpelisib + Palbociclib = compound: Cc1nc(NC(=O)N2CCC[C@H]2C(N)=O)sc1-c1ccnc(C(C)(C)C(F)(F)F)c1 [Alpelisib] + CC(=O)c1c(C)c2cnc(Nc3ccc(N4CCNCC4)cn3)nc2n(C2CCCC2)c1=O [Palbociclib] (partner 0.5 µM)
Summary of the method: (§1)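 The day after seeding in 1536-well plates, lung cancer cell lines were treated by pin tool with a single drug, or with a fixed anchor-drug dose together with five library-drug doses (not always all listed) in √10 steps. After 5 days, a combined fix-and-stain solution (final 0.05% Triton X-100, 1% formaldehyde, 1 ug/ml Hoechst) was added. Nuclei counted on 4× images gave relative viability as treated counts over vehicle counts, reported as the median of duplicate plates.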

Alpelisib + AZD7762 = compound: Cc1nc(NC(=O)N2CCC[C@H]2C(N)=O)sc1-c1ccnc(C(C)(C)C(F)(F)F)c1 [Alpelisib] + NC(=O)Nc1cc(-c2cccc(F)c2)sc1C(=O)N[C@H]1CCCNC1 [AZD7762] (partner 0.2 µM)
Summary of the method: as §1

Alpelisib + Decitabine = compound: Cc1nc(NC(=O)N2CCC[C@H]2C(N)=O)sc1-c1ccnc(C(C)(C)C(F)(F)F)c1 [Alpelisib] + Nc1ncn([C@H]2C[C@H](O)[C@@H](CO)O2)c(=O)n1 [Decitabine] (partner 2 µM)
Summary of the method: as §1

Vemurafenib + Trametinib = compound: CCCS(=O)(=O)Nc1ccc(F)c(C(=O)c2c[nH]c3ncc(-c4ccc(Cl)cc4)cc23)c1F [Vemurafenib] + CC(=O)Nc1cccc(-n2c(=O)n(C3CC3)c(=O)c3c(Nc4ccc(I)cc4F)n(C)c(=O)c(C)c32)c1 [Trametinib] (partner 0.02 µM)
Summary of the method: as §1

Cell Line	relative viability (Alpelisib + Palbociclib; first compound 0.04 µM)	relative viability (Alpelisib + Palbociclib; first compound 0.1265 µM)	relative viability (Alpelisib + Palbociclib; first compound 0.4 µM)	relative viability (Alpelisib + Palbociclib; first compound 1.265 µM)	relative viability (Alpelisib + Palbociclib; first compound 4 µM)	relative viability (Alpelisib + AZD7762; first compound 0.04 µM)	relative viability (Alpelisib + AZD7762; first compound 0.1265 µM)	relative viability (Alpelisib + AZD7762; first compound 0.4 µM)	relative viability (Alpelisib + AZD7762; first compound 1.265 µM)	relative viability (Alpelisib + AZD7762; first compound 4 µM)	relative viability (Alpelisib + Decitabine; first compound 0.04 µM)	relative viability (Alpelisib + Decitabine; first compound 0.1265 µM)	relative viability (Alpelisib + Decitabine; first compound 0.4 µM)	relative viability (Alpelisib + Decitabine; first compound 1.265 µM)	relative viability (Alpelisib + Decitabine; first compound 4 µM)	relative viability (Vemurafenib + Trametinib; first compound 0.03162 µM)	relative viability (Vemurafenib + Trametinib; first compound 0.1 µM)	relative viability (Vemurafenib + Trametinib; first compound 0.3162 µM)	relative viability (Vemurafenib + Trametinib; first compound 1 µM)
NCI-H650	0.315	0.345	0.316	0.263	0.265	1.08	0.769	0.931	0.773	0.837	0.352	0.324	0.327	0.318	0.284	1.05	0.944	0.808	1.09
NCI-H1651	0.512	0.514	0.594	0.483	0.484	0.458	0.442	0.535	0.536	0.359	0.625	0.557	0.703	0.598	0.439	0.805	0.741	0.773	0.827
LK-2	0.653	0.645	0.499	0.322	0.314	0.402	0.253	0.442	0.209	0.123	0.289	0.256	0.254	0.198	0.185	0.889	0.693	1.12	0.607
EKVX	0.349	0.325	0.386	0.313	0.242	0.868	0.662	0.675	0.636	0.533	0.313	0.17	0.389	0.312	0.283	0.316		0.406	0.476
EMC-BAC-2	0.5	0.481	0.505	0.348	0.324	1.1	1.05	0.946	0.832	0.581	0.924		0.965	0.72	0.747	0.806	0.907		1.08
NCI-H322M	0.47	0.493	0.453	0.389	0.309	0.594	0.556	0.47	0.424	0.458	0.722	0.707	0.721	0.627	0.529	0.462		0.723	0.547
NCI-H2170	0.351	0.337	0.36	0.246	0.21	0.865	0.712	0.891	0.632	0.481	0.44	0.424	0.477	0.439	0.401	0.888		0.846	0.89
NCI-H358	0.118	0.104	0.139	0.103	0.103	0.506	0.386	0.497	0.301	0.295	0.194	0.195	0.205	0.178	0.169	0.155	0.119	0.15	0.175
NCI-H1793	0.367	0.287	0.332	0.324	0.245	0.473	0.332	0.383	0.374	0.23	0.539	0.466	0.449	0.388	0.275	0.397	0.387	0.467	0.591
NCI-H2405	0.515	0.536	0.52	0.43	0.462	0.763	0.728	0.686	0.446	0.428	0.756	0.731	0.699	0.517	0.58	0.622	0.473		0.608
NCI-H727	0.569	0.584	0.702	0.452	0.523	0.472	0.567	0.625	0.673	0.555	0.973	0.859	0.881	0.854	0.828	0.407	0.374	0.487	0.399
201T	0.374	0.335	0.357	0.315	0.29	0.616	0.636	0.546	0.477	0.469	0.85	0.78	0.88	0.772	0.628	0.702	0.681	0.752	0.779
H3255	0.333	0.321	0.333	0.296	0.264	0.86	0.88	1.32	0.799	0.864	0.632	0.603	0.65	0.448	0.467	0.589		0.652	0.645
NCI-H1395	0.634	0.651	0.649	0.475	0.589	0.438	0.379	0.404	0.393	0.392	0.747	0.699	0.75	0.645	0.65	1.04	1.03	0.89	0.971

Reference: the supplement of paper PMC10307832
